In patent EP2815749A1, “Solid form of 4-amino-2-(2,6-dioxopiperidine-3-yl)isoindoline-1,3-dione having specified X-ray diffraction pattern” (IP Gesellschaft für Management mbH, priority 2013, dated 2014):
Structures can show the parent of a compound that is named as a salt. Where two headings read alike, the source gives them in different places. Each block holds one molecule with its values, some of them ahead of it.

Assays:
[1] = Hygroscopicity of forms of Compound of formula (V) (DVS); type: physicochemical; conditions: between 0% and 90% relative humidity; 25°C
Protocol: Differential Scanning Calorimetry (DSC): DSC analyses were performed on a TA instrument Q2000 Differential Scanning Calorimeter. Indium was used as the calibration standard. Approximately 2-5 mg of sample was placed into a DSC pan. The sample was heated under nitrogen at a rate of 10°C/min, up to a final temperature of 350°C. Melting points were reported as the extrapolated onset temperatures. Thermogravimetric Analysis (TGA): TGA analyses were performed on a TA instrument Q5000 Thermogravimetric Analyzer. Calcium oxalate was used for a performance check. Approximately 2-10 mg of accurately weighed sample was placed on a pan and loaded into the TGA furnace. The sample was heated under nitrogen at a rate of 10°C/min, up to a final temperature of 300°C. Attenuated Total Reflection Fourier-Transform Infrared Analysis (ATR-FTIR): FTIR analyses were performed on the samples "as is" using an attenuated total reflection (ATR) attachment on a Nicolet 6700 FTIR spectrometer. After a background of ambient lab conditions was obtained, samples were placed on the ATR, compressed with the anvil, and spectrum acquired. Miniature Scanning Electron Microscope (Mini SEM) Morphology analysis of the samples was carried out on an Even Mini SEM. Small amounts of samples were dispersed on a sample holder, and then coating with gold viewed with 200x and 1000x magnification. Dynamic Vapor Sorption (DVS) Hygroscopicity was determined on a Surface Measurement Systems DVS. Typically a sample size of 5-30 mg was loaded into the DVS instrument sample pan and the sample was analyzed on a DVS automated sorption analyzer at 25°C. The relative humidity was increased from 0 % to 90 %RH at 10 %RH step. The relative humidity was then decreased in a similar manner to accomplish a full adsorption/desorption cycle. The entire scope of this invention is not limited by the specific examples described herein, but is more readily understood with reference to the appended claims.

[2] = Equilibration and form conversion experiments of Compound of formula (V); type: physicochemical; conditions: for Form by XRPD after equilibration: Ambient, 8 days
Protocol: Equilibration: Equilibration studies using single, binary and ternary combinations of batch solvents (water, acetone, and acetonitrile) were investigated to mimic key steps in manufacturing 3-(4-nitro-1-oxoisoindolin-2-yl)piperidine-2,6-dione. Materials of 3-(4-nitro-1-oxoisoindolin-2-yl)piperidine-2,6-dione and solvent or solvent mixtures were added to a glass vial to achieve free-flowing slurry and allowed to equilibrate at the specified temperature. After equilibration for 8 days, the solid phase was separated via filtration. The solid phase was then dried under air and analyzed by XRPD. List of Experimental Conditions for Equilibration:
A total of four batches of 3-(4-nitro-1-oxoisoindolin-2-yl)piperidine-2,6-dione were characterized by XRPD, DSC, TGA, ATR-FTIR and DVS, as described in section 6.5. The solid form represented by the batch 1 was designated as Form A ({drug5b}); the solid form represented by the batch 4 was designated as Form B ({drug5c}); the batches 2 and 3 were determined to be mixtures of Forms A and B, with Form B ({drug5c}) dominating the patterns. The equilibration experiments were performed using batches 2, 3 and 4, and the results are described in Table 2. Results for Equilibration Experiments:
Results from Additional Form conversion Experiments: […]

[3] = as above; type: physicochemical; conditions: for Form by XRPD after equilibration: 6 hours
[4] = Desolvation of solvate forms of Compound (VII); type: physicochemical
Protocol: Polymorph screening: A polymorph screen was conducted in the methylethyl ketone (MEK)/ water solvent systems, as well as in the acetonitrile (ACN), ACN/water and isopropyl acetate solvent systems. Polymorph screening techniques included crash cooling, solvent evaporation, antisolvent addition, and slurry experiments. Slurry experiments were performed on an IKA RCT hot plate with magnetic stirring set to 710 rpm. The temperature was controlled with an IKA ETS-D5 thermocouple. Solvent volumes were measured and transferred with Gibson Pipetteman volumetric pipettes. New forms that were identified as solvates were subjected to desolvation under two potential conditions: (1) drying in a vacuum oven at 40°C and (2) sitting undisturbed under ambient conditions in a fume hood. Physical characterization of all forms proceeded by X-ray powder diffraction (XRPD) and thermogravimetric analysis (TGA).
Experiment 6: Desolvation: New forms of Compound (VII) obtained in the polymorph screen suspected of being solvates were subjected to further form investigation through attempted desolvation. Forms D, E, F, G, H, I, J, K, L and Hydrate A were left to stand open to the atmosphere under ambient conditions and or were placed in a vacuum oven. […] Forms D and K produced new crystalline XRPD patterns following desolvation. […] In some embodiments, Form R ({drug7p}) is characterized by one or more peaks in an XRPD spectrum selected from the peaks listed in Table 20. Form R ({drug7p}) Peak List:
In some embodiments, Form S ({drug7q}) is characterized by one or more peaks in an XRPDspectrum selected from the peaks listed in Table 21.

[5] = Salt screening and crystalline salt characterization of Compound (VI); conditions: for Hygroscopicity: ambient temperature and relative humidity conditions
Protocol: The screening examined acid type, acid level (equivalents), and/or type of crystallization solvent. Each plate contained 96 well plates (8 rows of 12 columns per plate). […] The solution (12.5 mL) was transferred to 24 vials. To each vial was added 0.25 M EtOH stock solutions of the following acids:
The content of each vial was transferred to 12 crystallization wells and evaporated to dryness. Upon evaporation, each well was charged with 100 µl of solvent using a robotic liquid handler. The following crystallization solvents were tested: methyl isobutyl ketone (MIBK), ethyl acetate, toluene, THF, acetonitrile, acetone, isopropanol, ethanol, methanol, 1,2-dichloroethylene, isopropanol/water (50:50), and water. Next, the plates were sealed with Teflon septa and subjected to temperature cycling. […] After the heating/cooling cycle, the contents of the wells were characterized by birefringent imaging. Perceived crystalline hits were further characterized by PXRD analysis.

[6] = water; listed as free base
Protocol: Hygroscopicity: Sorption/desorption isotherms were measured using the VT1100 humidity microbalance (VTI Corporation, Hialeah, FL, USA). Measurements were carried out at 25°C. Samples were dried under N2 flow at 25°C. […] Concentration in supernatant was measured by gravimetry for organic solvents and by HPLC from aqueous solvents and propylene glycol.

physchem = conditions: thermodynamic from solid

Molecule: O=C1CCC(N2Cc3c(cccc3[N+](=O)[O-])C2=O)C(=O)N1 (centres unmarked) [Form A ({drug5b}), 3-(4-nitro-1-oxoisoindolin-2-yl)piperidine-2,6-dione]
total mass change [1]: 0.42%
Form conversion to other forms ([2]; form conversion studies): no conversion

Molecule: CC(C)(C)c1cc(C(C)(C)C)c(NC(=O)c2c[nH]c3ccccc3c2=O)cc1O [Form K ({drug7i}), N-[2,4-bis(1,1-dimethylethyl)-5-hydroxyphenyl]-1,4-dihydro-4-oxoquinoline-3-carboxamide]
XRPD pattern after attempted desolvation ([4]; ambient conditions and vacuum oven for 2 months): converted to a new crystalline form of Compound (VII) designated Form S

Molecule: O=C1CCC(N2Cc3c(cccc3[N+](=O)[O-])C2=O)C(=O)N1 (centres unmarked) [Form B ({drug5c}), 3-(4-nitro-1-oxoisoindolin-2-yl)piperidine-2,6-dione]
total mass change [1]: 0.39%
Form by XRPD after equilibration ([2]; Acetone/water (1:1)): converts to Form A
Form by XRPD after equilibration ([2]; Acetonitrile/water (1:1)): converts to Form A
Form by XRPD after equilibration ([2]; Acetonitrile/water/acetone (1:1:1)): converts to Form A
Form by XRPD after equilibration ([2]; acetone): converts to Form A
Form by XRPD after equilibration ([2]; water): converts to Form A
Form by XRPD after equilibration ([3]; Acetonitrile, 80 °C (or reflux)): converts to Form A
Form by XRPD after equilibration ([3]; Acetonitrile/water (2:1), 60 °C): converts to Form A
XRPD Result after form conversion experiment ([3]; Heated to 220 °C for 4 hours): converts to Form A

Molecule: Cl [Hydrochloric acid]
Hygroscopicity [5]: Crystalline salt; crystals were hygroscopic at ambient temperatures and relative humidity conditions; crystalline salt samples included multiple hydration states and multiple crystalline forms. Solid state NMR indicated that prepared samples contained mixture of crystalline phases.
Hygroscopicity ([5]; listed as hydrochloric acid salt): hygroscopic

Molecule: N#Cc1ccc([C@H]2CCc3cncn32)c(F)c1 [HCl, 4-(R)-(6,7-dihydro-5H-pyrrolo[1,2-c]imidazol-5-yl)-3-fluoro-benzonitrile, reference compound]
Moisture gain (r.h. 25%): 0.5%
Moisture gain (r.h. 50%): 0.2%
Moisture gain (r.h. 75%): 0.2%
Moisture gain (r.h. 85%): 3.3%
Moisture gain (r.h. 95%): 23.6%

Molecule: CC(C)(C)c1cc(C(C)(C)C)c(NC(=O)c2c[nH]c3ccccc3c2=O)cc1O [Form D ({drug7b}), N-[2,4-bis(1,1-dimethylethyl)-5-hydroxyphenyl]-1,4-dihydro-4-oxoquinoline-3-carboxamide]
XRPD pattern after attempted desolvation ([4]; ambient conditions and vacuum oven for approximately 1 month): converted to a new crystalline form of Compound (VII) designated Form R

Molecule: N#Cc1ccc([C@H]2CCc3cncn32)c(F)c1 [Compound (III), 4-(R)-(6,7-Dihydro-5H-pyrrolo[1,2-c]imidazol-5-yl)-3-fluoro-benzonitrile]
Solubility in water at the 0.1% target concentration [6]: largely insoluble
Moisture gain (r.h. 0%): 0.0%
Moisture gain (r.h. 5%): 0.0%
Moisture gain (r.h. 25%, listed as free base): 0.1%
Moisture gain (r.h. 50%, listed as free base): 0.2%
Moisture gain (r.h. 75%, listed as free base): 0.3%
Moisture gain (r.h. 85%, listed as free base): 0.5%
Moisture gain (r.h. 95%, listed as free base): 1.0%
solubility (physchem; acetone, 25 °C, organic solvent or mixture): > 50 mg/mL
solubility (physchem; aqueous solvent, pH 1, 25 °C, pH 1, simulated gastric fluid, pH 1): > 50 mg/mL
solubility (physchem; ethanol, 25 °C, organic solvent or mixture): > 50 mg/mL
solubility (physchem; ethyl acetate, 25 °C, organic solvent or mixture): > 50 mg/mL

Molecule: Citric acid
Hygroscopicity [5]: Crystalline salt; hygroscopic at ambient temperature and relative humidity conditions. PXRD patterns of slurry and dried material did not match.
Hygroscopicity ([5]; listed as citric acid salt): hygroscopic

Second part, led by results:

XRPD Result after form conversion experiment ([3]; Heated to 220 °C for 4 hours): Form A+C
XRPD Result after form conversion experiment ([3]; Slurry in NMP/Acetone/water at ambient for 5 days): Form A+C
XRPD Result after form conversion experiment ([3]; Slurry in NMP/Acetone/water at ambient for 10 days): Form A+C
Molecule: NC1(C(=O)N[C@@H](CCO)c2ccc(Cl)cc2)CCN(c2ncnc3[nH]ccc23)CC1 [Form C, (S)-4-amino-N-(1-(4-chlorophenyl)-3-hydroxypropyl)-1-(7H-pyrrolo[2,3-d]pyrimidin-4-yl)piperidine-4-carboxamide]

XRPD Result after form conversion experiment ([3]; Heated to 220 °C for 4 hours): Form A
Molecule: NC1(C(=O)N[C@@H](CCO)c2ccc(Cl)cc2)CCN(c2ncnc3[nH]ccc23)CC1 [Form B, (S)-4-amino-N-(1-(4-chlorophenyl)-3-hydroxypropyl)-1-(7H-pyrrolo[2,3-d]pyrimidin-4-yl)piperidine-4-carboxamide]

XRPD pattern after attempted desolvation ([4]; vacuum oven for one month): became x-ray amorphous
Molecule: CC(C)(C)c1cc(C(C)(C)C)c(NC(=O)c2c[nH]c3ccccc3c2=O)cc1O [Form G ({drug7e}), N-[2,4-bis(1,1-dimethylethyl)-5-hydroxyphenyl]-1,4-dihydro-4-oxoquinoline-3-carboxamide]

XRPD pattern after attempted desolvation ([4]; standing under ambient conditions and sitting in the vacuum oven): same XRPD patterns
Molecule: CC(C)(C)c1cc(C(C)(C)C)c(NC(=O)c2c[nH]c3ccccc3c2=O)cc1O [Form E ({drug7c}), N-[2,4-bis(1,1-dimethylethyl)-5-hydroxyphenyl]-1,4-dihydro-4-oxoquinoline-3-carboxamide]

XRPD pattern after attempted desolvation ([4]; ambient conditions for two weeks): same Form L
XRPD pattern after attempted desolvation ([4]; vacuum oven for 24 hours): converted to x-ray amorphous
Molecule: CC(C)(C)c1cc(C(C)(C)C)c(NC(=O)c2c[nH]c3ccccc3c2=O)cc1O [Form L ({drug7j}), N-[2,4-bis(1,1-dimethylethyl)-5-hydroxyphenyl]-1,4-dihydro-4-oxoquinoline-3-carboxamide]

XRPD pattern after attempted desolvation ([4]; ambient conditions for one month): same Form H
XRPD pattern after attempted desolvation ([4]; vacuum oven for one month): converted to a semi-crystalline form
Molecule: CC(C)(C)c1cc(C(C)(C)C)c(NC(=O)c2c[nH]c3ccccc3c2=O)cc1O [Form H ({drug7f}), N-[2,4-bis(1,1-dimethylethyl)-5-hydroxyphenyl]-1,4-dihydro-4-oxoquinoline-3-carboxamide]

water content of samples ([5]; >25% relative humidity): ~6 wt. %
Hygroscopicity ([5]; listed as fumaric acid salt): hygroscopic
Molecule: Fumaric acid
Hygroscopicity [5]: hygroscopic at ambient temperature and relative humidity conditions

total mass change [1]: 0.43%
XRPD Result after form conversion experiment ([3]; Heated to 220 °C for 4 hours): partially converts to Form A
Form conversion ([3]; ambient temperature, NMP/acetone/water (1:2.5:2.5), time not stated): converts to Form A
Molecule: O=C1CCC(N2Cc3c(cccc3[N+](=O)[O-])C2=O)C(=O)N1 (centres unmarked) [Form C ({drug5d}), 3-(4-nitro-1-oxoisoindolin-2-yl)piperidine-2,6-dione]
